Results on 21 compounds are retold here after paper PMC8705538, “Discovery of SARS-CoV-2 Nsp14 and Nsp16 Methyltransferase Inhibitors by High-Throughput Virtual Screening” (Pharmaceuticals, 2021).

As a reminder, the IC50 is the concentration that inhibits the measured activity by half.

In one test the target is SARS-CoV-2 nsp14 (Severe acute respiratory syndrome coronavirus 2, UniProt P0DTD1). Description: biochemical. Particulars: for Ligand Efficiency (LE) nsp14: estimated from IC50 values.
The target of the next test is SARS-CoV-2 nsp16/nsp10 (Severe acute respiratory syndrome coronavirus 2, UniProt P0DTD1). In words: biochemical. Particulars: for Ligand Efficiency (LE) nsp16: estimated from IC50 values.
Test [1] concerns the target T1, human Glycine N-Methyltransferase (GNMT) (Homo sapiens, UniProt Q14749).
T1 construct: purchased MyBioSource MBS636160
T1 sequence (Q14749 1-295): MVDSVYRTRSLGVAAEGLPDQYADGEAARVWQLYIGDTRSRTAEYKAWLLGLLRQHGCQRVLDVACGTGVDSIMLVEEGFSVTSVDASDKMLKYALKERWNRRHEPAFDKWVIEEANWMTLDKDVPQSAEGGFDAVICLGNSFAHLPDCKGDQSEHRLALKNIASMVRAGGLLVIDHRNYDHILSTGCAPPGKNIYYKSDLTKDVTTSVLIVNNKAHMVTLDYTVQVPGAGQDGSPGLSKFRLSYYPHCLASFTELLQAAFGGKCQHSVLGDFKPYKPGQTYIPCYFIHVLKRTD
Description: HTRF methyltransferase selectivity assay, human GNMT. Type of test: biochemical. The note with it: for Ligand Efficiency (LE) Human (hMtase): estimated from IC50 values.

[2] abbreviates: HTRF, SAM 10 µM, GpppG 4 µM, read-out: IC50 nsp14.
Setting [3] is: HTRF, nsp16/nsp10, SAM 10 µM, m7GpppA-RNA, read-out: IC50 nsp16.
The mark [4] stands for this setting: HTRF, SAM 10 µM, glycine 5 mM, read-out: IC50 Human (hMtase, human glycine N-methyltransferase).

SMILES strings stand for the structures. Read-outs that look alike come from different tables or passages of the source.

Turning to `Nc1ncnc2c1ncn2[C@@H]1O[C@H](C(=O)N2CCN(CC(=O)Nc3cccc4c3CNC4=O)CC2)[C@@H](O)[C@H]1O` [ZINC000017654909], on SARS-CoV-2 nsp14, the “Percent inhibition at 100 μM, nsp14” value came out at 62 ±2% and the “Ligand Efficiency (LE) nsp14” value was 0.14 kcal/mol. The IC50 at SARS-CoV-2 nsp14 (setting [2]) is 75 ± 4 µM. Further, on SARS-CoV-2 nsp16/nsp10, the “Percent inhibition at 100 μM, nsp16” value is 65 ±7% and the “Ligand Efficiency (LE) nsp16” value is recorded as 0.14 kcal/mol. On SARS-CoV-2 nsp16/nsp10 (setting [3]), the concentration for half-maximal inhibition (IC50) amounted to 75 ± 4 µM. For the same compound, in test [1], the “Percent inhibition at 100 μM, Human” value was 98 ±2% and the “Ligand Efficiency (LE) Human (hMtase)” value is recorded as 0.16 kcal/mol. Further, in test [1] (setting [4]), the IC50 was 22.8 µM.

For `Nc1ncnc2c1ncn2[C@@H]1O[C@H](COC(=O)c2ccc(S(=O)(=O)F)cc2)[C@@H](O)[C@H]1O` [ZINC000048222133], on SARS-CoV-2 nsp14, the “Percent inhibition at 100 μM, nsp14” value was 58 ±2% and the “Ligand Efficiency (LE) nsp14” value is listed as 0.19 kcal/mol. At SARS-CoV-2 nsp14 (setting [2]), the IC50 was found to be 53 ± 3 µM. Also, at SARS-CoV-2 nsp16/nsp10, the “Percent inhibition at 100 μM, nsp16” value was determined as 42 ±6% and the “Ligand Efficiency (LE) nsp16” value is reported as 0.17 kcal/mol. On SARS-CoV-2 nsp16/nsp10 (setting [3]), the IC50 amounted to 105 ± 6 µM. Further, in test [1], the “Percent inhibition at 100 μM, Human” value came out at 87 ±1% and the “Ligand Efficiency (LE) Human (hMtase)” value is 0.20 kcal/mol. Moreover, the IC50 in test [1] (setting [4]) amounted to 25.3 µM.

Consider `CC(=O)N1N=C(c2ccc3c(c2)OCO3)OC1c1cc(-c2ccccc2)nc2ccccc12` (stereo not drawn) [ZINC000021941344], for which the “Percent inhibition at 100 μM, nsp14” value on SARS-CoV-2 nsp14 was found to be 12 ±4%. On SARS-CoV-2 nsp16/nsp10, the “Percent inhibition at 100 μM, nsp16” value was 36 ±10%. Also, the “Percent inhibition at 100 μM, Human” value in test [1] was 45 ±7%.

With `Cc1ncsc1CCC(=O)N1CCCC(C(=O)c2ccc3c4c(cccc24)CC3)C1` (stereo not drawn) [ZINC000012755219], at SARS-CoV-2 nsp14, the “Percent inhibition at 100 μM, nsp14” value is 9 ±5%. The “Percent inhibition at 100 μM, nsp16” value at SARS-CoV-2 nsp16/nsp10 is 40 ±8%. Besides, in test [1], the “Percent inhibition at 100 μM, Human” value is on record as 61 ±4%.

Consider `Cc1cc(=O)[nH]c(NCCNC(=O)c2cc(-c3cccn3C)n[nH]2)n1` [ZINC000091693861], for which the “Percent inhibition at 100 μM, nsp14” value on SARS-CoV-2 nsp14 is listed as 9 ±6%. On SARS-CoV-2 nsp16/nsp10, the “Percent inhibition at 100 μM, nsp16” value was 24 ±4%. The “Percent inhibition at 100 μM, Human” value in test [1] was 21 ±6%.

With `CCN(CCSc1ccccc1)C(=O)c1cc(-c2ccncc2)n[nH]1` [ZINC000097636636], the “Percent inhibition at 100 μM, nsp14” value on SARS-CoV-2 nsp14 is recorded as 5 ±2%. Moreover, the “Percent inhibition at 100 μM, nsp16” value at SARS-CoV-2 nsp16/nsp10 is on record as 19 ±7%. Besides, in test [1], the “Percent inhibition at 100 μM, Human” value is on record as -46 ±2%.

As for `Nc1ncnc2c1ncn2[C@@H]1O[C@H](CSCC[C@H](N)C(=O)O)[C@@H](O)[C@H]1O` [S-(5′-Adenosyl)-L-homocysteine (SAH), S-(5′-Adenosyl)-L-homocysteine, reference compound], on SARS-CoV-2 nsp14, the 50% inhibitory concentration (IC50) was 0.14 µM and the “Ligand Efficiency (LE) nsp14” value is given as 0.33 kcal/mol. Also, at SARS-CoV-2 nsp16/nsp10, the half-maximal inhibitory concentration (IC50) was 0.28 µM and the “Ligand Efficiency (LE) nsp16” value is given as 0.32 kcal/mol. In test [1], half-maximal inhibition (IC50) required 1.7 µM and the “Ligand Efficiency (LE) Human (hMtase)” value is 0.28 kcal/mol.

For the compound `CN(Cc1cccc2cnccc12)C(=O)CCC1(CCC(=O)O)CCC(=O)N1` (stereo not drawn) [ZINC000220483024], the “Percent inhibition at 100 μM, nsp14” value at SARS-CoV-2 nsp14 is -5 ±3%. Moreover, the “Percent inhibition at 100 μM, nsp16” value at SARS-CoV-2 nsp16/nsp10 stood at 31 ±6%. For the same compound, the “Percent inhibition at 100 μM, Human” value in test [1] came out at 16 ±4%.

Take `Nc1ncnc2c1ncn2[C@@H]1O[C@H](C(=O)NC2CC2)[C@@H](O)[C@H]1O` [ZINC000004475116]: the “Percent inhibition at 100 μM, nsp14” value at SARS-CoV-2 nsp14 is listed as 32 ±6%. Further, the “Percent inhibition at 100 μM, nsp16” value on SARS-CoV-2 nsp16/nsp10 is 54 ±10%. In test [1], the “Percent inhibition at 100 μM, Human” value was 56 ±1%.

In the case of `O=C(CCCn1cnc2ccccc2c1=O)Nc1ccc2ncnc(O)c2c1` [ZINC000096114839], the “Percent inhibition at 100 μM, nsp14” value on SARS-CoV-2 nsp14 was 28 ±7%. The “Percent inhibition at 100 μM, nsp16” value on SARS-CoV-2 nsp16/nsp10 came out at 17 ±5%. Moreover, the “Percent inhibition at 100 μM, Human” value in test [1] came out at 83 ±6%.

As for `CN(CC1CCN(c2ccccc2)C1)S(=O)(=O)c1ccc2[nH]c(=O)oc2c1` (stereo not drawn) [ZINC000952973746], at SARS-CoV-2 nsp14, the “Percent inhibition at 100 μM, nsp14” value came to 27 ±9%. Further, the “Percent inhibition at 100 μM, nsp16” value at SARS-CoV-2 nsp16/nsp10 came out at 38 ±6%. In addition, the “Percent inhibition at 100 μM, Human” value in test [1] was found to be 41 ±1%.

As for `NC1=NC(c2ccccc2)n2c(nc(=O)c3ccccc32)N1` (stereo not drawn) [ZINC000008994271], the “Percent inhibition at 100 μM, nsp14” value at SARS-CoV-2 nsp14 turned out to be 19 ±10%. The “Percent inhibition at 100 μM, nsp16” value at SARS-CoV-2 nsp16/nsp10 came out at 39 ±3%. Besides, the “Percent inhibition at 100 μM, Human” value in test [1] was -3 ±6%.

For the compound `Cc1ccccc1NC(=O)c1nnn2c1NC(C(=O)O)=CC2c1ccc(C(=O)O)cc1` (stereo not drawn) [ZINC000072333096], the “Percent inhibition at 100 μM, nsp14” value on SARS-CoV-2 nsp14 is recorded as 25 ±10%. The “Percent inhibition at 100 μM, nsp16” value on SARS-CoV-2 nsp16/nsp10 turned out to be 33 ±12%. The “Percent inhibition at 100 μM, Human” value in test [1] turned out to be 17 ±4%.

As to `O=C(Cn1ccc(=O)c2ccccc21)NCCSc1cnn[nH]1` [ZINC000218615582], the “Percent inhibition at 100 μM, nsp14” value on SARS-CoV-2 nsp14 is 21 ±3%. For the same compound, the “Percent inhibition at 100 μM, nsp16” value at SARS-CoV-2 nsp16/nsp10 was determined as 51 ±4%. The “Percent inhibition at 100 μM, Human” value in test [1] is 55 ±2%.

With `CN(CCNc1nc2c(c(=O)[nH]1)Cc1ccccc1OC2)S(C)(=O)=O` [Compound 028-736-920], at SARS-CoV-2 nsp14, the “Percent inhibition at 100 μM, nsp14” value turned out to be 8 ±5%. The “Percent inhibition at 100 μM, nsp16” value on SARS-CoV-2 nsp16/nsp10 was -4 ±3%. Further, the “Percent inhibition at 100 μM, Human” value in test [1] came out at 42 ±2%.

In the case of `COc1ccccc1CN1CC(C(=O)NCc2n[nH]c(=O)[nH]2)CCC1=O` (stereo not drawn) [ZINC000092001674], on SARS-CoV-2 nsp14, the “Percent inhibition at 100 μM, nsp14” value came to 0 ±7%. The “Percent inhibition at 100 μM, nsp16” value on SARS-CoV-2 nsp16/nsp10 is on record as 22 ±12%. Besides, the “Percent inhibition at 100 μM, Human” value in test [1] was found to be 44 ±8%.

For `NC(=O)CC[C@H](N)C(=O)NS(=O)(=O)OC[C@H]1O[C@@H](n2cnc3c(N)ncnc32)[C@H](O)[C@@H]1O` [ZINC000036477981], on SARS-CoV-2 nsp14, the “Percent inhibition at 100 μM, nsp14” value turned out to be 20 ±3%. Moreover, the “Percent inhibition at 100 μM, nsp16” value on SARS-CoV-2 nsp16/nsp10 came to 50 ±11%. The “Percent inhibition at 100 μM, Human” value in test [1] amounted to 89 ±8%.

As for `Cc1nc(O)cc(CNc2nc3c(c(=O)[nH]2)Cc2ccccc2OC3)n1` [ZINC000095519272], on SARS-CoV-2 nsp14, the “Percent inhibition at 100 μM, nsp14” value was 49 ±17% and the “Ligand Efficiency (LE) nsp14” value is on record as 0.19 kcal/mol. Moreover, on SARS-CoV-2 nsp14 (setting [2]), the IC50 is approximately 200 µM. In addition, on SARS-CoV-2 nsp16/nsp10, the “Percent inhibition at 100 μM, nsp16” value was 57 ±13% and the “Ligand Efficiency (LE) nsp16” value was 0.21 kcal/mol. The IC50 at SARS-CoV-2 nsp16/nsp10 (setting [3]) came out at 95 ± 4 µM. Besides, in test [1], the “Percent inhibition at 100 μM, Human” value is on record as 70 ±3% and the “Ligand Efficiency (LE) Human (hMtase)” value is reported as 0.22 kcal/mol. In addition, the IC50 in test [1] (setting [4]) was 53 ± 3 µM.

In the case of `CC(C(=O)NCCCn1ccnn1)c1n[nH]c(=O)c2ccccc12` (stereo not drawn) [ZINC000215108606], the “Percent inhibition at 100 μM, nsp14” value on SARS-CoV-2 nsp14 stood at 9 ±3%. Also, the “Percent inhibition at 100 μM, nsp16” value on SARS-CoV-2 nsp16/nsp10 is 40 ±6%. Besides, the “Percent inhibition at 100 μM, Human” value in test [1] amounted to 22 ±6%.

For the compound `Cc1nc2ccc(Cl)cc2cc1C(=O)Nc1ccc(C(N)=O)cc1` [ZINC000019718669], the “Percent inhibition at 100 μM, nsp14” value on SARS-CoV-2 nsp14 came to 49 ±16%. Besides, at SARS-CoV-2 nsp16/nsp10, the “Percent inhibition at 100 μM, nsp16” value was found to be 66 ±9%. Moreover, in test [1], the “Percent inhibition at 100 μM, Human” value was 52 ±4%.

With `CC(C)(C)c1csc(SCC(=O)Nc2cccc3nsnc23)n1` [Compound 009-639-090], the “Percent inhibition at 100 μM, nsp14” value at SARS-CoV-2 nsp14 is 16 ±1%. Moreover, the “Percent inhibition at 100 μM, nsp16” value on SARS-CoV-2 nsp16/nsp10 was 43 ±7%. Further, the “Percent inhibition at 100 μM, Human” value in test [1] is on record as 61 ±9%.
